# Molecular target: recombinant human PAI-1 (Homo sapiens, UniProt P05121)
# Experiment: Test Example 2: Human PAI-1 Inhibitory Activity (pH 7.4 HEPES buffer, 10 minutes incubation with two-chain tPA)
# Assay type: biochemical
# Parameters: purchased Molecular Innovations, Inc
# Conditions: read-out: Inhibition Rate of PAI-1 Activity (%)
# Procedure: 0.1 M HEPES, 0.1 M NaCl. 1 mM EDTA. 0.1 % Polyethylene glycol 8,000 (Hampton Research Corporation),
# 2 mM Dimethyldecylphoshine oxide [Apo-10] (Fluka Corporation)
# recombinant human PAI-1, sequence (P05121 24-402): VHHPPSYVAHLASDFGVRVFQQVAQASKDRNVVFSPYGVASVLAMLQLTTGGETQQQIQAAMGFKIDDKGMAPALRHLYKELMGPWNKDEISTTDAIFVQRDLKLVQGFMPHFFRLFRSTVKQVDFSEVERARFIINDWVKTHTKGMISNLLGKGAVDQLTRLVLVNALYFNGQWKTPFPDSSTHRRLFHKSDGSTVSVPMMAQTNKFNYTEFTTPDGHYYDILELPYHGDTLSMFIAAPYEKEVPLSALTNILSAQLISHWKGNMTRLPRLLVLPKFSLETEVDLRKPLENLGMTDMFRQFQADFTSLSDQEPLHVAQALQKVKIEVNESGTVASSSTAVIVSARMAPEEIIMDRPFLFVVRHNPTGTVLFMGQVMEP
inhibition at 0.1 µM [%],inhibition at 0.3 µM [%],inhibition at 1 µM [%],inhibition at 3 µM [%],inhibition at 10 µM [%],inhibition at 25 µM [%],SMILES
12,16,86,> 99,,,CC(C)(C)c1cccc(Oc2cc(-c3cccc(OC(F)(F)F)c3)ccc2CCC(=O)O)c1 [Compound 515]
3,38,94,96,,,CC(C)(C)c1ccc(Oc2cc(Nc3ccc(OC(F)(F)F)cc3)ccc2/C=C/C(=O)O)cc1 [Compound 531]
0,12,87,98,,,CC(C)(C)c1ccc(Oc2cc(Oc3ccc(OC(F)(F)F)cc3)ccc2OCC(=O)O)cc1 [Compound 538]
10,14,95,> 99,,,O=C(O)C(=O)N(CCCCc1ccccc1)c1ccc(N2CCSCC2)c(-c2ccc(OC(F)(F)F)cc2)c1 [Compound 675]
,,40,> 99,> 99,90,CC(C)(C)c1ccc(CN(C(=O)C(=O)O)c2ccc(N3CCN(c4ccc(OC(F)(F)F)cc4)CC3)cc2)cc1 [Compound 628]
6,12,91,87,,,CC(C)[C@@H]1CC[C@@H](C)C[C@H]1Oc1ccc(-c2ccc(OC(F)(F)F)cc2)cc1N(CCCCc1ccccc1)C(=O)C(=O)O [Compound 639]
6,36,98,> 99,,,CC(C)(C)c1ccc(Oc2cc(-c3ccc(OC(F)(F)F)cc3)ccc2CCCC(=O)O)cc1 [Compound 527]
16,39,98,> 99,,,CC(C)c1ccc(Sc2cc(-c3ccc(OC(F)(F)F)cc3)ccc2/C=C/C(=O)O)cc1 [Compound 516]
14,54,> 99,> 99,,,CC(C)c1ccc(-c2ccc(/C=C/C(=O)O)c(Oc3ccc(C(C)(C)C)cc3)c2)cc1 [Compound 518]
17,7,69,> 99,,,CC(C)c1ccccc1Oc1cc(-c2ccc(OC(F)(F)F)cc2)ccc1OCC(=O)O [Compound 513]
0,16,95,> 99,,,CC(C)(C)c1ccc(Sc2cc(-c3ccc(OC(F)(F)F)cc3)ccc2C(=O)C(=O)O)cc1 [Compound 548]
19,33,97,94,,,CCCCCOc1ccc(-c2ccc(C(C)C)cc2)cc1N(CCCCc1ccccc1)C(=O)C(=O)O [Compound 678]
4,17,97,> 99,,,CC(C)(C)c1ccc(Sc2cc(-c3ccc(OC(F)(F)F)cc3)ccc2C(=O)O)cc1 [Compound 547]
5,15,57,> 99,,,O=C(O)C(=O)N(CCCCc1ccccc1)c1cc(-c2ccc(OC(F)(F)F)cc2)ccc1Oc1ccccc1 [Compound 638]
8,12,51,97,,,O=C(O)/C=C/c1ccc(-c2ccc(OC(F)(F)F)cc2)cc1Sc1ccccc1 [Compound 528]
12,26,> 99,96,,,O=C(O)C(=O)N(CCCCc1ccccc1)c1cc(-c2ccc(OC(F)(F)F)cc2)ccc1OC1CCCCCC1 [Compound 659]
1,22,96,> 99,,,CC(C)c1ccc(Oc2cc(-c3ccc(OC(F)(F)F)cc3)ccc2/C=C/C(=O)O)cc1 [Compound 509]

# Further lines, the compound ahead of its results:
SMILES,inhibition at 0.1 µM [%],inhibition at 0.3 µM [%],inhibition at 1 µM [%],inhibition at 3 µM [%],inhibition at 10 µM [%],inhibition at 25 µM [%]
CCCCCCCCCCCCCCCOc1cc(-c2ccc(OC(F)(F)F)cc2)ccc1N(CCCCc1ccccc1)C(=O)C(=O)O [Compound 385],74,> 99,> 99,> 99,,
CCCCCOc1ccc(-c2cccc(C)c2)cc1N(CCCCc1ccccc1)C(=O)C(=O)O [Compound 379],14,17,78,92,,
CC(CCOc1ccc(-c2ccc(OC(F)(F)F)cc2)cc1OCc1ccc(C(C)(C)C)cc1)C(=O)O (stereo not drawn) [Compound 482],7,12,52,> 99,,
CCCCCOc1cc(-c2ccc(OC(F)(F)F)cc2)cc(N(CCCCc2ccccc2)C(=O)C(=O)O)c1OCCCCC [Compound 372],2,27,97,93,,
CC(C)(C)c1ccc(Oc2cc(-c3ccccc3OC(F)(F)F)ccc2/C=C/C(=O)O)cc1 [Compound 466],4,9,88,> 99,,
CC(C)(C)c1ccc(Oc2cc(-c3cc(Cl)ccc3Cl)ccc2OCC(=O)O)cc1 [Compound 455],9,20,93,99,,
CC(C)(C)c1cccc(Oc2ccc(-c3ccc(OC(F)(F)F)cc3)cc2OCC(=O)O)c1 [Compound 439],12,9,44,> 99,,
CCCCN(CC(=O)O)c1cc(-c2ccc(OC(F)(F)F)cc2)ccc1OCCCCc1ccccc1 [Compound 433],13,6,41,98,,
CCCCCCCCCOc1cc(N(CCCCc2ccccc2)C(=O)C(=O)O)ccc1-c1ccc(OC(F)(F)F)cc1 [Compound 389],65,97,> 99,> 99,,
O=C(O)CCc1ccc(-c2ccc(OC(F)(F)F)cc2)cc1OCCCOCc1ccccc1 [Compound 488],0,10,36,91,,
CCCCC(Oc1ccc(-c2cccc(C(F)(F)F)c2)cc1Oc1ccc(C(C)(C)C)cc1)C(=O)O (stereo not drawn) [Compound 320],1,9,70,98,,
CCCCCOc1ccc(-c2ccc(OC(F)(F)F)cc2)cc1N(CCCCc1ccc(F)cc1)C(=O)C(=O)O [Compound 382],13,12,84,97,,
CC(C)(C)c1ccc(Oc2cc(-c3cccc(C(F)(F)F)c3)ccc2OCC(=O)O)cc1 [Compound 315],13,16,60,> 99,,
CC(C)(C)c1ccc(-c2ccc(CCC(=O)O)c(Oc3ccc(OC(F)(F)F)cc3)c2)cc1 [Compound 480],17,22,80,> 99,,
CCCCCCC(Oc1cc(-c2ccc(OC(F)(F)F)cc2)ccc1Oc1ccc(C(F)(F)F)cc1)C(=O)O (stereo not drawn) [Compound 327],0,15,94,95,,
O=C(O)/C=C/c1ccc(-c2ccc(OC(F)(F)F)cc2)cc1Oc1ccc(OC(F)(F)F)cc1 [Compound 477],7,21,60,> 99,,
CC(Oc1cc(-c2ccc(OC(F)(F)F)cc2)ccc1CCC(=O)O)c1ccccc1 (stereo not drawn) [Compound 501],12,0,12,83,,
CCCCCOc1ccc(-c2ccc(OC(F)(F)F)cc2)cc1N(CCCOc1ccccc1)C(=O)C(=O)O [Compound 356],7,13,53,> 99,,
O=C(O)CCc1ccc(-c2ccc(OC(F)(F)F)cc2)cc1OCCCSc1ccccc1 [Compound 508],18,9,48,98,,
CC(C)(C)c1cccc(Oc2ccc(-c3ccc(OC(F)(F)F)cc3)cc2CCC(=O)O)c1 [Compound 438],13,11,50,> 99,,
Cc1cc(C)cc(-c2ccc(/C=C/C(=O)O)c(Oc3ccc(C(C)(C)C)cc3)c2)c1 [Compound 496],4,9,85,> 99,,
O=C(O)/C=C/c1ccc(-c2ccc(OC(F)(F)F)cc2)cc1OCCCOCc1ccccc1 [Compound 487],0,3,26,98,,
CC(C)(C)c1ccc(Oc2ccc(-c3ccc(OC(F)(F)F)cc3)cc2OCC(=O)O)cc1 [Compound 302],0,9,27,98,,
CCCCC(Oc1cc(-c2ccc(OC(F)(F)F)cc2)ccc1OCc1ccc(C(C)(C)C)cc1)C(=O)O (stereo not drawn) [Compound 313],1,3,52,93,,
CC(C)(C)c1ccc(Oc2cc(-c3ccc(C(C)(C)C)cc3)ccc2/C=C/C(=O)O)cc1 [Compound 495],8,64,98,> 99,,
